# Assay results reported in article PMC4838890, “Dynamic and flexible H3K9me3 bridging via HP1β dimerization establishes a plastic state of condensed chromatin” (Nature Communications, 2016).
# How the values were obtained:
# H3K9me3 oligonucleosomes = assay: Fluorescence correlation spectroscopy (FCS), H3K9me3 oligonucleosomes; type: biochemical, Xenopus laevis; conditions: 150 mM NaCl
# Description: (§1) All fluorescence measurements were performed with a pulsed custom-built mode-locked Ti:Sa-Laser and a confocal two-photon fluorescence microscope setup. Detailed description of the experimental setup and the measurement procedure are available on request. In all cases 10 nM of the acceptor labelled species, ATTO 610-labelled nucleosomal array, was incubated with 20–200 μM of recombinant hHP1β in 10 μl of 10 mM triethanolamine HCl (pH 7.5), 0.1 mM EDTA, 150 mM NaCl at 4°C. For each sample the fluorescence correlation curve, fluorescence intensity and anisotropy values were determined at 22°C. Every data point was averaged over a minimum of 15 single measurements of 10 s each. Excitation was by two-photon mode.
# (§2) The fluorescence data were analysed using the correlation function [drawing 1] , and the equation for free diffusion of particles [drawing 2] , where I(t) is the fluorescence intensity measured at time t, N the particle number, τD the diffusion time, and r0=0.25 the axis ratio of the focal region, considering the dimensions of a Gaussian beam waist.
# Supplementary Figure 3: Analysis of chromatin clustering m ediated by hHP1β.
# (a) Schematic representation of a stepwise precipitation and resolubilization experiment.
# (b) Results of stepwise precipitation and resolubilization after clustering H3K9me3-oligonucleosomes by hHP1β at different concentrations. DNA remaining in the supernatant after centrifugation was incubated with EtBr and measured by fluorescence reading. Data were normalized to amounts present in the input.
# Results of a representative experiment are shown.
# (c) Instrumental setup used for two -photon fluorescence correlation spectroscopy (FCS). The beam of a pulsed Ti:Sa-Laser is reflected into a water immersion objective (O) via a dichroic mirror (M). The fluorescence light transmitted through this dichroic mirror is split up by a second dichroic mirror. Blow- […]
# F: filter, L: lens, M: dichroic mirror, O:objective, PD:
# (d) Scheme of the strategy used for FCS measurements. DNA of oligonucleosomes was labeled at the 5’- […]
# [1] = target: fluorescein-labeled H3K9me3-peptide; assay: Fluorescence polarization (FP), H3K9me3 peptide; type: binding; conditions: 150 mM NaCl, 10 mM triethanolamine pH 7.4, 0.1 mM EDTA, 2 mM DTT, 4°C, read-out: apparent Kd
# Description: Experiments were performed in 10 mM triethanolamine HCl (pH 7.4), 150 mM NaCl, 0.1 mM EDTA, 2 mM DTT. Titration series of 10 μl volume in 384-well plates were read multiple times on a Plate CHAMELEON II plate reader (HIDEX Oy, Turku, Finland). Multiple readings and independent titration series were averaged after data normalization. […]
# hHP1β) using mass spectrometry. For detailed listing of the identified crosslinks see Supplementary […]
# (c) Binding of the indicated hHP1β wild type (WT) and mutant proteins to a fluorescein-labeled H3K9me3-peptide was analyzed by FP at 150 mM NaCl. Apparent Kd deduced from the fitted curves are […]
# (d) Chromatin coprecipitation of hHP1β WT and mutant proteins with oligonucleosomes. Precipitated material was run on SDS-PAGE and stained with Coomassie Blue. Input, 10 %.
# (e) Oligonucleosomes at 2.5 nM were incubated with hHP1β wild type (WT) or mutant proteins at 5 µM and 150 mM NaCl (saturating conditions). DNA remaining in the supernatant after centrifugation was incubated with EtBr and measured by fluorescence reading. Data were n ormalized to DNA levels present in the input. […]
# (g) Oligonucleosomes at 6.7 nM were incubated with hHP1β wild type (WT) or mutant proteins at 5 µM and 100 mM NaCl (non-saturating conditions). DNA remaining in the supernatant after centrifugation was incubated with EtBr and measured by fluorescence reading. […]
# H3K9me0 oligonucleosomes = assay: Fluorescence correlation spectroscopy (FCS), H3K9me0 oligonucleosomes; type: biochemical, Xenopus laevis; conditions: 150 mM NaCl
# Description: as §1, with “Excitation was by two-photon mode.” left out
# as §2, with “waist. […]” for “waist.”
# (b) Results of stepwise precipitation and resolubilization after clustering H3K9me3-oligonucleosomes by hHP1β at different concentrations. DNA remaining in the supernatant after centrifugation was incubated with EtBr and measured by fluorescence reading. […]
# (c) Instrumental setup used for two -photon fluorescence correlation spectroscopy (FCS). […]
# [2] = test system: immobilized H3 tail peptides, mono- and oligonucleosomes; assay: Pull-down, H3 tail peptides, mono- and oligonucleosomes; type: binding, Xenopus laevis; conditions: immobilized on streptavidin beads, 4°C
# Description: 4 μg C-terminally biotinylated histone H3 peptides (aa 1–20) or 1 μg of biotinylated nucleosomes or oligonucleosomal arrays were incubated with 40 μl Streptavidin MagnaSphere Paramagmetic beads (Promega, Mannheim, Germany) in 350 μl binding buffer (10 mM triethanolamine (pH 7.5), 150 mM NaCl, 0.1 mM EDTA, 0.1% (v/v) Triton-X100) supplemented with 1 mg ml^−1 BSA for 2.5 h at RT. Unbound material was removed by three washes with 0.5 ml binding buffer. Charged beads were then incubated with 100 pmol recombinant protein in 350 μl binding buffer for 1 h at 4°C on a rotator. Beads were washed three times with 0.5 ml binding buffer for 3 min per wash at 4°C. Bound proteins were eluted in 20 μl 1 × SDS loading buffer and by boiling for 5 min.
# Supplementary Table 1: Summary of conditions used in the different experiments of this study. experiment result modification template Temp. [NaCl] [MgCl2] […]
# chromatin Fig. 1e,f; Fig. S1f-h; H3K9me3 oligo- 4 150 5 coprecipitation Fig. S2b nucleosomes
# Fig. S7d,f; Fig.S9c nucleosomes […]
# chromatin sedimentation Fig. 4a; H3K9me3 oligo- 4 150 0
# (single point) Fig. S3b nucleosomes […]
# chromatin sedimentation. oligo-(titration) Fig. 3a H3K9me3 nucleosomes 4 150 0
# [3] = test system: H3KC9me3 oligonucleosomes; assay: Chromatin coprecipitation, H3KC9me3 oligonucleosomes; type: binding, Xenopus laevis
# Description: 6.7 nM oligonucleosomes were incubated with 1 μM recombinant protein in 100 μl binding buffer (10 mM triethanolamine (pH 7.5), 150 mM NaCl, 5 mM MgCl2, 0.1 mM EDTA, 0.1% (v/v) Triton-X100) for 1 h on ice. Precipitated chromatin complexes were recovered by centrifugation at 16,100g for 30 min at 4°C. Pellets were washed once with 0.5 ml binding buffer and centrifuged for 15 min at 4 °C. Precipitated material was resuspended in 10 μl 1 × SDS loading buffer and boiled for 5 min before running on SDS–PAGE.
# Supplementary Table 1: Summary of conditions used in the different experiments of this study.
# experiment result modification template Temp. [NaCl] [MgCl2]
# chromatin Fig. 1e,f; Fig. S1f-h; H3K9me3 oligo- 4 150 5
substance,measurement,setting,value
hHP1β I161A: CSD point mutant of hHP1β incapable of dimerization,complex formation by clustering (FCS),H3K9me3 oligonucleosomes,No such complex formation by clustering
"hHP1β WT: recombinant human heterochromatin protein 1β (GenBank NM_001127228), 185 aa",maximum hydrodynamic radius,"H3K9me3 oligonucleosomes; 10 nM ATTO 610-labelled array, highest protein concentration",450 nm
same,EC50,"H3K9me3 oligonucleosomes; 23°C, read-out: half-maximal effect, FCS",3.5 µM
same,Kd,[1],5 ± 2 µM
same,assemblies with H3K9me0 oligonucleosomes (FCS),H3K9me0 oligonucleosomes,larger assemblies only appeared at high hHP1β WT concentrations
same,retention on H3K9me3 versus unmodified matrices,[2],retained much more efficiently on all three matrices in the presence of H3K9me3
same,recovery with H3KC9me3 oligonucleosomes,"[3]; 6.7 nM oligonucleosomes, 1 μM protein, 150 mM NaCl, 5 mM MgCl2",bound specifically to H3K9me3 oligonucleosomes irrespective of the saturation level of the chromatin template
same,molecules bound per nucleosome,[3]; saturating protein concentrations,two
